From ChEMBL document CHEMBL5678804 (Cancer Cell, 2011)
The source made the active and inactive calls. No cut-off for these calls is given here.

Columns and labels:
[1] = biological target: cAMP-dependent protein kinase catalytic subunit PRKX (Homo sapiens, UniProt P51817); assay: Inhibition of human wild type PRKX using RBER-GSK3([…] to […]) as substrate preincubated for 2 hrs followed by ATP addition and measured every 2 mins for […] by spectrophotometric analysis
[2] = biological target: Fibroblast growth factor receptor 4 (Homo sapiens, UniProt P22455); assay: Inhibition of human wild type FGFR4 using PolyEY as substrate preincubated for 2 hrs followed by ATP addition and measured every 2 mins for […] by spectrophotometric analysis
[3] = biological target: Myosin light chain kinase 2, skeletal/cardiac muscle (Homo sapiens, UniProt Q9H1R3); assay: Inhibition of human wild type MLCK2 using RB-S6P as substrate preincubated for 2 hrs followed by ATP addition and measured every 2 mins for […] by spectrophotometric analysis
Chain of Myosin light chain kinase 2, skeletal/cardiac muscle (Q9H1R3 whole entry): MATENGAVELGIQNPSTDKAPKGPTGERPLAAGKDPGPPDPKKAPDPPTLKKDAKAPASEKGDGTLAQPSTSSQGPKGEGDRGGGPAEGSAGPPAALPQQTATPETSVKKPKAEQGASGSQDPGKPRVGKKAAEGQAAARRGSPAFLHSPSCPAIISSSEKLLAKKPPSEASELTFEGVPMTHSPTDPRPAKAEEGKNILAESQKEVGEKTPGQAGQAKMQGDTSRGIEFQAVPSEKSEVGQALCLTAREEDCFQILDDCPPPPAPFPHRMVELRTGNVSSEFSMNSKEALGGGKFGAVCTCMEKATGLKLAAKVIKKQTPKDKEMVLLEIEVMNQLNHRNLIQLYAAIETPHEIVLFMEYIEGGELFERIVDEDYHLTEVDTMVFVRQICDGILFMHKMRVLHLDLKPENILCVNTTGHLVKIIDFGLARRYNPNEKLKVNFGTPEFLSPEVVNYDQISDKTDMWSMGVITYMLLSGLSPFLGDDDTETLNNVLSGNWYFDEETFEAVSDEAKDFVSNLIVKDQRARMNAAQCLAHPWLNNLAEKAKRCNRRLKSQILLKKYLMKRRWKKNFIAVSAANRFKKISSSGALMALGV

[4] = biological target: Serine/threonine-protein kinase Chk1 (Homo sapiens, UniProt O14757); assay: Inhibition of human wild type CHK1 using RBER-CHKtide as substrate preincubated for 2 hrs followed by ATP addition and measured every 2 mins for […] by spectrophotometric analysis
[5] = biological target: MAP kinase-activated protein kinase 2 (Homo sapiens, UniProt P49137); assay: Inhibition of human MK2 preincubated for 2 hrs followed by ATP addition and measured every 2 mins for […] by spectrophotometric analysis
[6] = biological target: Cytoplasmic tyrosine-protein kinase BMX (Homo sapiens, UniProt P51813); assay: Inhibition of human wild type Bmx using PolyEY as substrate preincubated for 2 hrs followed by ATP addition and measured every 2 mins for […] by spectrophotometric analysis
Chain of Cytoplasmic tyrosine-protein kinase BMX (P51813 whole entry): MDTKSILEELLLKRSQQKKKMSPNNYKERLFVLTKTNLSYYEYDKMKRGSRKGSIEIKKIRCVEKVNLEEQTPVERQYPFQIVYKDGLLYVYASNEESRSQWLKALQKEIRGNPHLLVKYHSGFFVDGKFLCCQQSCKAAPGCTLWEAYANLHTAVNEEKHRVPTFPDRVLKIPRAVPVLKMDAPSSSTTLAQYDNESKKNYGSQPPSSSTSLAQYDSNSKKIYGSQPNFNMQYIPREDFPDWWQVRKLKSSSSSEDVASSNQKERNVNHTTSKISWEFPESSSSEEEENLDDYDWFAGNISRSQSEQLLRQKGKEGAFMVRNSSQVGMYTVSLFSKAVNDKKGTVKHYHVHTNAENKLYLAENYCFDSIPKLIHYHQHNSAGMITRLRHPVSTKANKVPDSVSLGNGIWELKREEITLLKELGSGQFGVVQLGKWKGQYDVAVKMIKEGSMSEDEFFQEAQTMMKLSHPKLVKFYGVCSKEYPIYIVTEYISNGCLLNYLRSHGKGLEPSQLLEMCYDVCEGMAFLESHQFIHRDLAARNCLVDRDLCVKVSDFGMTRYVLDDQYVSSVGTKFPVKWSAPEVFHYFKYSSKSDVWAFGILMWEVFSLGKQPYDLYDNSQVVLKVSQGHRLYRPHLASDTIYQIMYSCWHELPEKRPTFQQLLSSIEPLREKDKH

[7] = biological target: Tyrosine-protein kinase ABL1 (Homo sapiens, UniProt P00519); settings: Sf9, time 2.0 hrs
Ephrin type-A receptor 7 = Ephrin type-A receptor 7 (Homo sapiens, UniProt Q15375); assay: Inhibition of human wild type EPHA7 using PolyEY as substrate preincubated for 2 hrs followed by ATP addition and measured every 2 mins for […] by spectrophotometric analysis
Chain of Ephrin type-A receptor 7 (Q15375 whole entry): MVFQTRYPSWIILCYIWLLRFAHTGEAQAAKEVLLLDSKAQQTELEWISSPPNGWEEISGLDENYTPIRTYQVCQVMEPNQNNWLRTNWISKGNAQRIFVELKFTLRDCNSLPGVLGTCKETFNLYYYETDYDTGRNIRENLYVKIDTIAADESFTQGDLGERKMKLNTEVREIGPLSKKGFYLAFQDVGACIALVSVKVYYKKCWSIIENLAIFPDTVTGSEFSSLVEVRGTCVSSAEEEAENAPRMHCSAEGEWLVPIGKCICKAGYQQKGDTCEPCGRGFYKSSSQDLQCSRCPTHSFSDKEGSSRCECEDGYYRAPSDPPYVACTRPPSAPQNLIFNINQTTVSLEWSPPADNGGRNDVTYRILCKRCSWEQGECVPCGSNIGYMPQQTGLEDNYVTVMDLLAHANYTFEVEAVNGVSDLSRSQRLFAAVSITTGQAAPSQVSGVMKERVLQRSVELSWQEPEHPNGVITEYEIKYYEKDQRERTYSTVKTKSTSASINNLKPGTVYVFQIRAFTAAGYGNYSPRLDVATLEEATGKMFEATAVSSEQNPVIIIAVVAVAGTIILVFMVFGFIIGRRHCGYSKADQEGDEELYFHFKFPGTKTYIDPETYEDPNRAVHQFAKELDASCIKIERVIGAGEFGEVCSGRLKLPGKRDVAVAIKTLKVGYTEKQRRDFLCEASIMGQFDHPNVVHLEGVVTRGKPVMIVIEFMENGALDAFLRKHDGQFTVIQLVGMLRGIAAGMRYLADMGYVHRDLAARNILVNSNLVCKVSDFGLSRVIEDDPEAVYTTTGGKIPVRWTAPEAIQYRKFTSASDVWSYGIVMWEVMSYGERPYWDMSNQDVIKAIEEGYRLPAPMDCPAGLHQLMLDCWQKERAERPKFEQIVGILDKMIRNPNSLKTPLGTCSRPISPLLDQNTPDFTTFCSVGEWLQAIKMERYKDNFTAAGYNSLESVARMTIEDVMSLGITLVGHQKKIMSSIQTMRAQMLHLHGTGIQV

[8] = biological target: Glycogen synthase kinase-3 alpha (Homo sapiens, UniProt P49840); assay: Inhibition of human wild type GSK3 alpha using SUPT5 754to 837 as substrate preincubated for 2 hrs followed by ATP addition and measured every 2 mins for […] by spectrophotometric analysis
[9] = biological target: Crk-like protein (Homo sapiens) (UniProt P46109); assay: Inhibition of CrkL phosphorylation in Ph+ B-ALL patient with […] mutation derived human Leukemia cell at 50 to 1000 nM by immunoblot analysis; format: cell-based; settings: dose 50-1000 nM
Chain of Crk-like protein (Homo sapiens) (P46109 whole entry): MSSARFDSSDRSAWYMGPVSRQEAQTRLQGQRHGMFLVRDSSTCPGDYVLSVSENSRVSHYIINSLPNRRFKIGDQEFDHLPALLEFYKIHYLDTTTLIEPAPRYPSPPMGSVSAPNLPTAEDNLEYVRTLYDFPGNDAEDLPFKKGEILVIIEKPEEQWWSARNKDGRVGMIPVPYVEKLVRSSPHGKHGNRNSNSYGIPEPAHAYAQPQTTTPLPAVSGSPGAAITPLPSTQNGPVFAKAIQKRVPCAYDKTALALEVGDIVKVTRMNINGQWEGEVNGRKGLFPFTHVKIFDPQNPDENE

[10] = biological target: Mitogen-activated protein kinase 3 (Homo sapiens, UniProt P27361); assay: Inhibition of human wild type ERK1 using RBER-CHKtide as substrate preincubated for 2 hrs followed by ATP addition and measured every 2 mins for […] by spectrophotometric analysis
Aurora kinase C = Aurora kinase C (Homo sapiens, UniProt Q9UQB9); assay: Inhibition of human wild type AuroraC using bio-4xCHKT as substrate preincubated for 2 hrs followed by ATP addition and measured every 2 mins for […] by spectrophotometric analysis
Mononuclear cell line = assay: Inhibition of myeloid colony formation in CML patient derived human Mononuclear cell line; format: functional, cell-based; settings: dose 50-200 nM
[11] = test system: Tyrosine-protein kinase ABL1 (Homo sapiens), P00519 [T315I]; settings: time 2.0 hrs
[12] = biological target: Serine/threonine-protein kinase N1 (Homo sapiens, UniProt Q16512); assay: Inhibition of human wild type PKN1 using RBER-CHKtide as substrate preincubated for 2 hrs followed by ATP addition and measured every 2 mins for […] by spectrophotometric analysis
[13] = biological target: Mitogen-activated protein kinase kinase kinase 14 (Homo sapiens, UniProt Q99558); assay: Inhibition of human wild type NIK using RBER-CHKtide as substrate preincubated for 2 hrs followed by ATP addition and measured every 2 mins for […] by spectrophotometric analysis
[14] = biological target: Casein kinase I isoform alpha (Homo sapiens, UniProt P48729); assay: Inhibition of human wild type CK1 alpha using Casein as substrate preincubated for 2 hrs followed by ATP addition and measured every 2 mins for […] by spectrophotometric analysis
[15] = biological target: Protein kinase C beta type (Homo sapiens, UniProt P05771); assay: Inhibition of human wild type PKCbeta1 using 3xChocktide-PKC(19to 31) as substrate preincubated for 2 hrs followed by ATP addition and measured every 2 mins for […] by spectrophotometric analysis
Chain of Protein kinase C beta type (P05771 whole entry): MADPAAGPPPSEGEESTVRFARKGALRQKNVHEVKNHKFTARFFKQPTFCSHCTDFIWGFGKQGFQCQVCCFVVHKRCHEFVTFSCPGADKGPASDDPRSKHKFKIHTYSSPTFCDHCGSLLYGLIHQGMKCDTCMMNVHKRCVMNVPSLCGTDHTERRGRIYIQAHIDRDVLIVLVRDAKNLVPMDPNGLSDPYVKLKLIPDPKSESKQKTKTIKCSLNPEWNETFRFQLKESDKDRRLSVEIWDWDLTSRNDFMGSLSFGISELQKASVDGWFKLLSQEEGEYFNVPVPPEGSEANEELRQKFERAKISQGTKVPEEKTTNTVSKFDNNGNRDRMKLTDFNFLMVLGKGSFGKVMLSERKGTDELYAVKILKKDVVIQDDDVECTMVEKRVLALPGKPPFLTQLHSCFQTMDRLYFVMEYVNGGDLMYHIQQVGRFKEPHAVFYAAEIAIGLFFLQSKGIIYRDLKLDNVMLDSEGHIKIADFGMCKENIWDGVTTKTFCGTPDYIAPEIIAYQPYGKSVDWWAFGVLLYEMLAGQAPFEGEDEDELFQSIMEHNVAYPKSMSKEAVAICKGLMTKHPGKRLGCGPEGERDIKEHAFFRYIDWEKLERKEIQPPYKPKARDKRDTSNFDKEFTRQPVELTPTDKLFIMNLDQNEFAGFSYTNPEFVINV

Leukemia cell = assay: Cytotoxicity against human Leukemia cell assessed as reduction in cell viability measured after 72 hrs by MTT assay; format: functional, cell-based
[16] = biological target: Glycogen synthase kinase-3 beta (Homo sapiens, UniProt P49841); assay: Inhibition of human wild type GSK3 beta using RBER-CHKtide as substrate preincubated for 2 hrs followed by ATP addition and measured every 2 mins for […] by spectrophotometric analysis
SRSF protein kinase 1 = SRSF protein kinase 1 (Homo sapiens, UniProt Q96SB4); assay: Inhibition of human wild type SRPK1 using MBP as substrate preincubated for 2 hrs followed by ATP addition and measured every 2 mins for […] by spectrophotometric analysis
[17] = biological target: Tyrosine-protein kinase JAK2 (Homo sapiens, UniProt O60674); assay: Inhibition of human wild type JAK2 using Poly(Ala,Glu,Lys,Tyr)6:2:5:1 as substrate preincubated for 2 hrs followed by ATP addition and measured every 2 mins for […] by spectrophotometric analysis
Chain of Tyrosine-protein kinase JAK2 (O60674 whole entry): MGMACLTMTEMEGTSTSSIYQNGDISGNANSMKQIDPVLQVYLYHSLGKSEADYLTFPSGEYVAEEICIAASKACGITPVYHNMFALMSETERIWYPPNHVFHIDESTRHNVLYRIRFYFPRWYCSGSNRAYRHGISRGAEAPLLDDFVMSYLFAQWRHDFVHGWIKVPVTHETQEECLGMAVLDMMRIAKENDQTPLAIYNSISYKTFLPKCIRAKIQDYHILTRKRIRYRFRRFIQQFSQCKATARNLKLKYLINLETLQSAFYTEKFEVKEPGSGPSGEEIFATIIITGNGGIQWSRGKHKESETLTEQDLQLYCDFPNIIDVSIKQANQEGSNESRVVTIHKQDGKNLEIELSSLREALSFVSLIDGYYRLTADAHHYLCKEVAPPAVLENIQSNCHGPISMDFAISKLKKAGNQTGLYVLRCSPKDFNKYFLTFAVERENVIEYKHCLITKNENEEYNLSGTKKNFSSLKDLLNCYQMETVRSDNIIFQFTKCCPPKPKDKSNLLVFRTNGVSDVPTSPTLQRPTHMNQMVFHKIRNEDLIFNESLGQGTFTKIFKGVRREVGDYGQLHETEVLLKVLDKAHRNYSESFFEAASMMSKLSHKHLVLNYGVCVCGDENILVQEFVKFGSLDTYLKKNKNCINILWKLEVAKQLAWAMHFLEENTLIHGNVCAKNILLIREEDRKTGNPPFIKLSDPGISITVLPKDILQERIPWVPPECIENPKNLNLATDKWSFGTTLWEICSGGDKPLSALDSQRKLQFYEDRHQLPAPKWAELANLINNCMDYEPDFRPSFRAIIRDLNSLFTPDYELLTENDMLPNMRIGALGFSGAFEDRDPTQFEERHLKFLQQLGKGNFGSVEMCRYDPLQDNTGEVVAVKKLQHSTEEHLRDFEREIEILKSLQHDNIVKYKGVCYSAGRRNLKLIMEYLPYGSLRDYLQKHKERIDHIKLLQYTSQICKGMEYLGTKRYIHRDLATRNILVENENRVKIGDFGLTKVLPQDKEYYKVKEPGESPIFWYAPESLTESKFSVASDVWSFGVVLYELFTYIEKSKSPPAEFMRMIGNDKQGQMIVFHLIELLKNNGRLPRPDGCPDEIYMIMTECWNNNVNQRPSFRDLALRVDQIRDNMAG

[18] = biological target: Dual specificity protein kinase CLK1 (Homo sapiens, UniProt P49759); assay: Inhibition of human wild type CLK1 using autophos as substrate preincubated for 2 hrs followed by ATP addition and measured every 2 mins for […] by spectrophotometric analysis
[19] = Inhibition of human wild type PKA using bio-4xCHKT as substrate preincubated for 2 hrs followed by ATP addition and measured every 2 mins for […] by spectrophotometric analysis
[20] = biological target: Homeodomain-interacting protein kinase 4 (Homo sapiens, UniProt Q8NE63); assay: Inhibition of human wild type HIPK4 using RBER-IRStide as substrate preincubated for 2 hrs followed by ATP addition and measured every 2 mins for […] by spectrophotometric analysis
[21] = biological target: Serine/threonine-protein kinase TAO1 (Homo sapiens, UniProt Q7L7X3); assay: Inhibition of human TAOK1 preincubated for 2 hrs followed by ATP addition and measured every 2 mins for […] by spectrophotometric analysis
[22] = biological target: Death-associated protein kinase 1 (Homo sapiens, UniProt P53355); assay: Inhibition of human wild type DAPK1 using RBER-GSK3([…] to […]) as substrate preincubated for 2 hrs followed by ATP addition and measured every 2 mins for […] by spectrophotometric analysis
[23] = biological target: Cyclin-dependent kinase 1 (Homo sapiens, UniProt P06493); assay: Inhibition of human wild type CDK1 using PolyEY as substrate preincubated for 2 hrs followed by ATP addition and measured every 2 mins for […] by spectrophotometric analysis
Chain of Cyclin-dependent kinase 1 (P06493 whole entry): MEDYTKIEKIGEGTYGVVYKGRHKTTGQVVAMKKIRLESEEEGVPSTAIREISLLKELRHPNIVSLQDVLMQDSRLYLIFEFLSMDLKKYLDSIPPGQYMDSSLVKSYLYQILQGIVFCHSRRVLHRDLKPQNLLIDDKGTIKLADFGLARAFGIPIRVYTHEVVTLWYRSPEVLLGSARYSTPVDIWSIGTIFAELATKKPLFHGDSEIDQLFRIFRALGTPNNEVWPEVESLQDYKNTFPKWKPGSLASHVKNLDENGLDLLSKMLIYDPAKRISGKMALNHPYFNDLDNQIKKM

[24] = biological target: Myosin light chain kinase (Homo sapiens, UniProt Q32MK0); assay: Inhibition of human wild type MLCK using RB-S6P as substrate preincubated for 2 hrs followed by ATP addition and measured every 2 mins for […] by spectrophotometric analysis
[25] = biological target: cGMP-dependent protein kinase 1 (Homo sapiens, UniProt Q13976); assay: Inhibition of human wild type PKG1 alpha using 3xChocktide-PKC(19to 31) as substrate preincubated for 2 hrs followed by ATP addition and measured every 2 mins for […] by spectrophotometric analysis

Chain of cAMP-dependent protein kinase catalytic subunit PRKX (P51817 whole entry): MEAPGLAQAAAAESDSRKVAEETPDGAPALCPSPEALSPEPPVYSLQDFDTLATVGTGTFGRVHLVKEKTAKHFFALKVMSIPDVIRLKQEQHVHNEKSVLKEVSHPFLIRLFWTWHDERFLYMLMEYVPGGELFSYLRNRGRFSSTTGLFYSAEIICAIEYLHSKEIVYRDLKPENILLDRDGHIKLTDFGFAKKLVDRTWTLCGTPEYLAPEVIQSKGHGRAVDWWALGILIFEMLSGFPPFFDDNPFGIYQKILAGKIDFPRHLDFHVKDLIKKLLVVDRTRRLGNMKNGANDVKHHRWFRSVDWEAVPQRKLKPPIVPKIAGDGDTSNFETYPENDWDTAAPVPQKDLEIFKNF

- IC50 [1]: > 1000 nM
- IC50 [2]: 170 nM
- IC50 [3]: > 1000 nM
- IC50 [4]: > 1000 nM
- IC50 [5]: > 1000 nM
- IC50 [6]: 200 nM
- Kdiss [7]: 3.33e-05 s⁻¹
- IC50 (Ephrin type-A receptor 7): 88 nM
- IC50 [8]: > 1000 nM
- inhibition [9]: Active
- IC50 [10]: > 1000 nM
- IC50 (Aurora kinase C): > 1000 nM
- Kdiss [11]: 1.67e-05 s⁻¹
- IC50 [12]: > 1000 nM
- IC50 [13]: > 1000 nM
- IC50 [14]: > 1000 nM
- IC50 [15]: > 1000 nM
- IC50 [16]: > 1000 nM
- IC50 (SRSF protein kinase 1): > 1000 nM
- IC50 [17]: > 1000 nM
- IC50 [18]: > 1000 nM
- IC50 [19]: > 1000 nM
- IC50 [20]: 450 nM
- IC50 [21]: > 1000 nM
- IC50 [23]: 290 nM
- IC50 [24]: > 1000 nM
- IC50 [25]: > 1000 nM
SMILES: CNC(=O)c1cc(Oc2ccc(NC(=O)Nc3cc(C(C)(C)C)nn3-c3ccc4ncccc4c3)c(F)c2)ccn1 [REBASTINIB]
- inhibition (Mononuclear cell line): Dose-Dependent Effect
- Activity (Leukemia cell): Active
- IC50 [22]: > 1000 nM
